Experimental data as given in patent US6552079B2, “Integrin antagonists” (Eli Lilly and Company, priority 1996, dated 2003).

How the values were obtained:
[1] = tested on: ADP-induced aggregation of human platelets (PRP); test: Platelet aggregation assay (Aggregation-Human/PRP/ADP); format: cell-based; settings: human platelet rich plasma, ADP 20 μM
Protocol: In addition to the ELISA integrin binding assays described above, the Aggregation-Human/PRP/ADP Assay is useful for evaluating therapeutic compounds.
Platelet rich plasma (PRP) is prepared from healthy human volunteers for use in determining inhibition of platelet aggregation by compounds. Blood was collected via a 21 gauge butterfly cannula, using a two-syringe technique into 1/10 volume of […] trisodium citrate.
Platelet rich plasma was prepared at room temperature by centrifugation of the citrated whole blood at 100×g for 15 minutes. The PRP contained approximately 200-400,000 platelets/μl. Platelet poor plasma was prepared by centrifugation of citrated whole blood at 12,000×g for 2 minutes.
Platelet aggregation was assayed in a Chrono-log whole blood aggregometer (Chrono-log Corporation, Havertown, Pa.) using the PRP prepared above according to the manufacturers directions. Inhibition of platelet aggregation was studied by adding varying amounts of test materials followed by adenosine diphosphate (ADP, 20 μM) to stirred human PRP. Specifically, the human PRP was incubated with the compound for 1-2 min. at 37° C. prior to addition of the aggregating agent ADP.

GPIIb-IIIa = biological target: T1, GPIIb-IIIa (Homo sapiens, UniProt P05106+P08514); test: GPIIb-IIIa ELISA purified integrin binding assay (fibrinogen binding); settings: inhibition of biotinylated fibrinogen binding to immobilized purified platelet GPIIb-IIIa; read-out: GPIIbIIIa ELISA (IC50 μM)
T1 construct: Purified platelet GPIIb-IIIa was prepared by Fitzgerald, L. A., et al; from tissue; host or cells: platelets
Protocol: (§1) In the following assays, GPIIb-IIIa and vitronectin receptor, αvβ3 were prepared in purified form, by methods described in Fitzgerald, L. A., et al., Anal Biochem (1985) 151: 169-177 and Smith, J. W., J. Biol Chem (1988) 263: 18726-18731 (the disclosure of which is incorporated herein by reference). GPIIb-IIIa or vitronectin receptor, αvβ3, are coated onto microtiter plates. The coated support is then contacted with fibrinogen for the GPIIb-IIIa assay, or is contacted with vitronectin for the vitronectin receptor, αvβ3 and with test materials and incubated for sufficient time to reach maximal ligand binding to immobilized integrins. The adhesive ligands fibrinogen or vitronectin were typically provided at a concentration of 2-50 nM and the test material can, if desired, be added at a series of diultions. […]
(§2) The corresponding ligands (fibrinogen, von Willebrand Factor, or vitronectin) were conjugated to biotin using commercially available reagents and standard protocols. […] After incubation, the wells were aspirated to dryness and bound ligand containing biotin label was quantitated.
(§3) The bound protein was detected by the addition of anti-biotin antibody conjugated to alkaline phosphatase followed by addition of substrate (p-nitrophenyl […] phosphate), and determination of the optical density of each well at […].

[2] = biological target: T2, vitronectin receptor, αvβ3 (Homo sapiens, UniProt P05106+P06756); test: αvβ3 ELISA purified integrin binding assay (vitronectin binding); settings: inhibition of biotinylated vitronectin binding to immobilized purified αvβ3
T2 construct: After purification, the receptors were each stored in 0.1% Triton X-100 at 0.1-1.0 mg/ml; from tissue
Protocol: as §1, §2, §3

T1 sequence (P08514 32-887 limits assumed): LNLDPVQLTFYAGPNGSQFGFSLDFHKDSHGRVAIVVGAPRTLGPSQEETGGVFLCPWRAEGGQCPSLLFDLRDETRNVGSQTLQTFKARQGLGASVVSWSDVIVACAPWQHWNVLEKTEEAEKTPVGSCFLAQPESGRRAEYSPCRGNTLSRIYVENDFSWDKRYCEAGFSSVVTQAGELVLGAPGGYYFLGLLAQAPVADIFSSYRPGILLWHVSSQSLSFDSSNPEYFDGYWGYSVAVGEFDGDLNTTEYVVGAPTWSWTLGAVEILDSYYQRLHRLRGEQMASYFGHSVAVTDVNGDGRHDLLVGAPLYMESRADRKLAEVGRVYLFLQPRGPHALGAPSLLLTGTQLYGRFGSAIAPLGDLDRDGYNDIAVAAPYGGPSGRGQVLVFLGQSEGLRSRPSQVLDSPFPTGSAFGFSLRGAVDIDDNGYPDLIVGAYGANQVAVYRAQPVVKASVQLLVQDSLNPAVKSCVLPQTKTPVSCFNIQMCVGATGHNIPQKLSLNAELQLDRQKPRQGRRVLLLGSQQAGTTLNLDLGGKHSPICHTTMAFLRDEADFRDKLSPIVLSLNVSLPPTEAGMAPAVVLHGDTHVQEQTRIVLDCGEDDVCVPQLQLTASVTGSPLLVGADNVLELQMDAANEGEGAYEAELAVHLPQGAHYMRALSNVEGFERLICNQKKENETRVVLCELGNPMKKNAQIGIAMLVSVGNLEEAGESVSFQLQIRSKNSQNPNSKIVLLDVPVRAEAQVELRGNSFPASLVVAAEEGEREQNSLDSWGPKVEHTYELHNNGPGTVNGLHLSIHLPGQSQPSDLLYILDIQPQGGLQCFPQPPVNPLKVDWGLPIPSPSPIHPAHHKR
T1 sequence (P08514 891-1039 partner limits assumed): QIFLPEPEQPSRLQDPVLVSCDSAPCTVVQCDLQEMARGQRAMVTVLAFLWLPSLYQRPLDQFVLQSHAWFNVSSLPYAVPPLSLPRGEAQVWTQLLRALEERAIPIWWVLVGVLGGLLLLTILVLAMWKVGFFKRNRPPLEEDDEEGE
T1 sequence (P05106 27-788): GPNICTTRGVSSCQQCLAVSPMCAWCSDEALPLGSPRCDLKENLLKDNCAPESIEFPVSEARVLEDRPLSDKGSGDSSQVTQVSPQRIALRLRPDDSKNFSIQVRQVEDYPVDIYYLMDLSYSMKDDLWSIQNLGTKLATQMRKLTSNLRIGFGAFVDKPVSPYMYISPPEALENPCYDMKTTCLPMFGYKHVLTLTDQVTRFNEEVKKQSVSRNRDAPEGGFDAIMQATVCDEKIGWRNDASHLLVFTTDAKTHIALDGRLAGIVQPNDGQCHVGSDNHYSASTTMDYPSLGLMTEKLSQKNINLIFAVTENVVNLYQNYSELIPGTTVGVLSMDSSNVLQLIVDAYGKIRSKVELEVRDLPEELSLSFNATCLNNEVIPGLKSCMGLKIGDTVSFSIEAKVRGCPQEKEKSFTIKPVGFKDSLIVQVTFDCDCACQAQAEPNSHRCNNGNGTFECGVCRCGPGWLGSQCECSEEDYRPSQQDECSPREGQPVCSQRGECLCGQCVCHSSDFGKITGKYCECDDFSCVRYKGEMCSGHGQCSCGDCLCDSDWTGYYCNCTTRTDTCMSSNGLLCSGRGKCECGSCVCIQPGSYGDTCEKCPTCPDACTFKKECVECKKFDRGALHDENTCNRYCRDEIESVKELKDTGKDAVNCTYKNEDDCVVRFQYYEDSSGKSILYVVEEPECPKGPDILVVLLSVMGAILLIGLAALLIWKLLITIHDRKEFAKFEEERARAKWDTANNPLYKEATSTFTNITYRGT
T2 sequence (P06756 31-889 limits assumed): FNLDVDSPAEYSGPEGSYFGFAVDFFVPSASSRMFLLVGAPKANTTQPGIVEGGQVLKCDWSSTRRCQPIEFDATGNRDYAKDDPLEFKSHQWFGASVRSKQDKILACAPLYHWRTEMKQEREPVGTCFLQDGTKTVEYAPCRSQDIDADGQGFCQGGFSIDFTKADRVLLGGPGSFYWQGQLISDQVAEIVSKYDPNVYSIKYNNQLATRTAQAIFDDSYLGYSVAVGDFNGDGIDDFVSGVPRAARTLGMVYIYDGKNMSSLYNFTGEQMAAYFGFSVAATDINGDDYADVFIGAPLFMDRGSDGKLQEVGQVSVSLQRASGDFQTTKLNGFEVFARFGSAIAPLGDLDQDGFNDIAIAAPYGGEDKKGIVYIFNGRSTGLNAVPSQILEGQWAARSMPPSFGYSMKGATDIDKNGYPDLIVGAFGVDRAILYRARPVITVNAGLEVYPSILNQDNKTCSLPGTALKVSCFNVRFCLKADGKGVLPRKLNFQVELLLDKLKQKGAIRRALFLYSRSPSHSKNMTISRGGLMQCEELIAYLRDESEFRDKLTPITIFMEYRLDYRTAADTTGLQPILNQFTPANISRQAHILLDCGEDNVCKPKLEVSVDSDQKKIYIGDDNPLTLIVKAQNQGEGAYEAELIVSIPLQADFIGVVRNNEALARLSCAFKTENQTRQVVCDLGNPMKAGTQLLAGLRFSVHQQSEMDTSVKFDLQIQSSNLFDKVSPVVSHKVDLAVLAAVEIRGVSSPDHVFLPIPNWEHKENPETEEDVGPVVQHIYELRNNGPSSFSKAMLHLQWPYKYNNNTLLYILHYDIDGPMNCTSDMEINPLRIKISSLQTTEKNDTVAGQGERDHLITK
T2 sequence (P06756 891-1048 partner limits assumed): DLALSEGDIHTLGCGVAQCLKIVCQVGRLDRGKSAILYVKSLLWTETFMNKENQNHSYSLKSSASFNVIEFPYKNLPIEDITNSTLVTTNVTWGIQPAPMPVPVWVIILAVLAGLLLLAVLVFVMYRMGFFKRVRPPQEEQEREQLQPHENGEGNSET
T2 sequence (P05106 27-788): as the sequence (P05106 27-788) above

O=C(CNC(=O)C1CCNCC1)NCC(NS(=O)(=O)c1ccccc1)C(=O)O (stereo not drawn) [Compound 16] showed an IC50 [1] of 49.3 µM, an IC50 (GPIIb-IIIa) of 5 µM and an IC50 [2] of over 100 µM.
